We go through 25 molecules from patent publication US8653263B2 (Janssen Pharmaceutica, priority 2009, dated 2014).

pKi: −log10 of the molar value.

Sequence of human orexin-2 receptor (O43614 whole entry): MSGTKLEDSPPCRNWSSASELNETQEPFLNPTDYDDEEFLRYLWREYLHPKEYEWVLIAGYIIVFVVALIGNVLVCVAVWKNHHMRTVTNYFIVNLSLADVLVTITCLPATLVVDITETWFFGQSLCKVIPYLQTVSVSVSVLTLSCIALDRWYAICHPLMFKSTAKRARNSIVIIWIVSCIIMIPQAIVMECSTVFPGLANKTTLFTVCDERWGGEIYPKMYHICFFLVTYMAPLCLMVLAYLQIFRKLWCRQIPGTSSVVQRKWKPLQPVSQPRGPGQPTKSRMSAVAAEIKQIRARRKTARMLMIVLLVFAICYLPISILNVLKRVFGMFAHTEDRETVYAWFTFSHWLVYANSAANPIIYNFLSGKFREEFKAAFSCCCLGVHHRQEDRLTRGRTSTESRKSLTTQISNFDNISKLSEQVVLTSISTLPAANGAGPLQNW

This assay has as its target human orexin-2 receptor (Homo sapiens (Human), UniProt O43614). Briefly: Human orexin 2 receptor radioligand binding ([3H]-EMPA competition). As to conditions: HEK293 cells stably expressing human orexin-2 receptor; [3H]-EMPA 5 nM final; apparent Ki=IC50/(1+C/Kd), Kd=2 nM; read-out: OR 2 Ki.
A word on the pKi: it is the negative decadic logarithm of the Ki, by convention in mol/L. With `Cc1cc(C)nc(N2CC3CN(C(=O)c4cccc(C)c4C)CC3C2)n1` (stereo not shown) [Example 219, 2-[(2,3-Dimethylphenyl)carbonyl]-5-(4,6-dimethylpyrimidin-2-yl)octahydropyrrolo[3,4-c]pyrrole], the pKi was 6.39.

`Cc1cc(C)nc(N2CC3CN(C(=O)c4cccc(F)c4C)CC3C2)n1` (stereo not shown) [Example 220, 2-(4,6-Dimethylpyrimidin-2-yl)-5-[(3-fluoro-2-methylphenyl)carbonyl]octahydropyrrolo[3,4-c]pyrrole]: the pKi is 6.30.

In the case of `Cc1cc(C)nc(N2CC3CN(C(=O)c4cc(F)ccc4C(F)(F)F)CC3C2)n1` (stereo not shown) [Example 221, 2-(4,6-Dimethylpyrimidin-2-yl)-5-{[5-fluoro-2-(trifluoromethyl)phenyl]carbonyl}octahydropyrrolo[3,4-c]pyrrole], the negative logarithm of the Ki (pKi) was 5.66.

Turning to `COc1cc(Cl)ccc1C(=O)N1CC2CN(c3nc(C)cc(C)n3)CC2C1` (stereo not shown) [Example 222, 2-[(4-Chloro-2-methoxyphenyl)carbonyl]-5-(4,6-dimethylpyrimidin-2-yl)octahydropyrrolo[3,4-c]pyrrole], the negative logarithm of the Ki (pKi) was 5.44.

For `Cc1cc(C)nc(N2CC3CN(C(=O)c4cc(Cl)ccc4C)CC3C2)n1` (stereo not shown) [Example 223, 2-[(5-Chloro-2-methylphenyl)carbonyl]-5-(4,6-dimethylpyrimidin-2-yl)octahydropyrrolo[3,4-c]pyrrole], the negative logarithm of the Ki (pKi) is 6.47.

As to `Cc1ccc(C)c(C(=O)N2CC3CN(c4nc(C)cc(C)n4)CC3C2)c1` (stereo not shown) [Example 224, 2-[(2,5-Dimethylphenyl)carbonyl]-5-(4,6-dimethylpyrimidin-2-yl)octahydropyrrolo[3,4-c]pyrrole], the pKi is 6.20.

As for `Cc1cc(C)nc(N2CC3CN(C(=O)c4c(C)cccc4C)CC3C2)n1` (stereo not shown) [Example 225, 2-[(2,6-Dimethylphenyl)carbonyl]-5-(4,6-dimethylpyrimidin-2-yl)octahydropyrrolo[3,4-c]pyrrole], the pKi is 6.37.

As to `Cc1cc(C)nc(N2CC3CN(C(=O)c4cc(F)ccc4C)CC3C2)n1` (stereo not shown) [Example 226, 2-(4,6-Dimethylpyrimidin-2-yl)-5-[(5-fluoro-2-methylphenyl)carbonyl]octahydropyrrolo[3,4-c]pyrrole], the pKi was 6.08.

`Cc1ccc(C(=O)N2CC3CN(c4nc(C)cc(C)n4)CC3C2)c(C)c1` (stereo not shown) [Example 227, 2-[(2,4-Dimethylphenyl)carbonyl]-5-(4,6-dimethylpyrimidin-2-yl)octahydropyrrolo[3,4-c]pyrrole]: the pKi is 5.83.

For the molecule `CCOc1ccc(OCC)c(C(=O)N2CC3CN(c4nc(C)cc(C)n4)CC3C2)c1` (stereo not shown) [Example 228, 2-[(2,5-Diethoxyphenyl)carbonyl]-5-(4,6-dimethylpyrimidin-2-yl)octahydropyrrolo[3,4-c]pyrrole], the negative logarithm of the Ki (pKi) is 6.74.

In the case of `CCOc1cccc(OCC)c1C(=O)N1CC2CN(c3nc(C)cc(C)n3)CC2C1` (stereo not shown) [Example 229, 2-[(2,6-Diethoxyphenyl)carbonyl]-5-(4,6-dimethylpyrimidin-2-yl)octahydropyrrolo[3,4-c]pyrrole], the pKi is 6.50.

In the case of `Cc1cc(C)nc(N2CC3CN(C(=O)c4c(C)cccc4Cl)CC3C2)n1` (stereo not shown) [Example 230, 2-[(2-Chloro-6-methylphenyl)carbonyl]-5-(4,6-dimethylpyrimidin-2-yl)octahydropyrrolo[3,4-c]pyrrole], the pKi was 6.60.

Regarding `Cc1cc(C)nc(N2CC3CN(C(=O)c4ccc(F)cc4-c4ncccn4)CC3C2)n1` (stereo not shown) [Example 231, (5-(4,6-Dimethylpyrimidin-2-yl)hexahydropyrrolo[3,4-c]pyrrol-2(1H)-yl)(4-fluoro-2-(pyrimidin-2-yl)phenyl)methanone], the negative-log Ki (pKi) is 7.17.

`Cc1cc(C)nc(N2CC3CN(C(=O)c4cccc(F)c4I)CC3C2)n1` (stereo not shown) [Example 232, (5-(4,6-Dimethylpyrimidin-2-yl)hexahydropyrrolo[3,4-c]pyrrol-2(1H)-yl)(3-fluoro-2-iodophenyl)methanone]: the negative-log Ki (pKi) is 7.28.

Consider `Cc1cc(C)nc(N2CC3CN(C(=O)c4cccnc4C(F)(F)F)CC3C2)n1` (stereo not shown) [Example 233, 2-(4,6-Dimethylpyrimidin-2-yl)-5-{[2-(trifluoromethyl)pyridin-3-yl]carbonyl}octahydropyrrolo[3,4-c]pyrrole], for which the pKi is 5.68.

With `Cc1cc(C)nc(N2CC3CN(C(=O)c4cccnc4Br)CC3C2)n1` (stereo not shown) [Example 234], the pKi is 5.00.

On to `Cc1cc(C)nc(N2CC3CN(C(=O)c4cccnc4-c4ncccn4)CC3C2)n1` (stereo not shown) [Example 235, (5-(4,6-Dimethylpyrimidin-2-yl)hexahydropyrrolo[3,4-c]pyrrol-2(1H)-yl)(2-(pyrimidin-2-yl)pyridin-3-yl)methanone], for which the pKi was 6.25.

On to `Cc1cc(C)nc(N2CC3CN(C(=O)c4cccnc4-c4ccnn4C4CCCCO4)CC3C2)n1` (stereo not shown) [Example 236, (5-(4,6-Dimethylpyrimidin-2-yl)hexahydropyrrolo[3,4-c]pyrrol-2(1H)-yl)(2-(1-(tetrahydro-2H-pyran-2-yl)-1H-pyrazol-5-yl)pyridin-3-yl)methanone], for which the negative logarithm of the Ki (pKi) is 5.00.

As to `Cc1cc(C)nc(N2CC3CN(C(=O)c4cccnc4-c4ccn[nH]4)CC3C2)n1` (stereo not shown) [Example 237, (2-(1H-Pyrazol-5-yl)pyridin-3-yl)(5-(4,6-dimethylpyrimidin-2-yl)hexahydropyrrolo[3,4-c]pyrrol-2(1H)-yl)methanone], the pKi was 7.16.

For `Cc1nc(N2CC3CN(C(=O)c4cccc(F)c4-c4ncccn4)CC3C2)nc(C)c1C` (stereo not shown) [Example 239, (3-Fluoro-2-(pyrimidin-2-yl)phenyl)(5-(4,5,6-trimethylpyrimidin-2-yl)hexahydropyrrolo[3,4-c]pyrrol-2(1H)-yl)methanone], the negative logarithm of the Ki (pKi) was 8.15.

With `Cc1nc(N2CC3CN(C(=O)c4cccc(F)c4-n4nccn4)CC3C2)nc(C)c1C` (stereo not shown) [Example 240, (3-Fluoro-2-(2H-1,2,3-triazol-2-yl)phenyl)(5-(4,5,6-trimethylpyrimidin-2-yl)hexahydropyrrolo[3,4-c]pyrrol-2(1H)-yl)methanone], the negative logarithm of the Ki (pKi) is 8.15.

With `COc1ccc(-n2nccn2)c(C(=O)N2CC3CN(c4nc(C)c(C)c(C)n4)CC3C2)c1` (stereo not shown) [Example 241, (5-Methoxy-2-(2H-1,2,3-triazol-2-yl)phenyl)(5-(4,5,6-trimethylpyrimidin-2-yl)hexahydropyrrolo[3,4-c]pyrrol-2(1H)-yl)methanone], the negative logarithm of the Ki (pKi) is 7.77.

As to `O=C(c1cccc(F)c1-n1nccn1)N1CC2CN(c3ncc4cc(F)ccc4n3)CC2C1` (stereo not shown) [Example 242, (3-Fluoro-2-(2H-1,2,3-triazol-2-yl)phenyl)(5-(6-fluoroquinazolin-2-yl)hexahydropyrrolo[3,4-c]pyrrol-2(1H)-yl)methanone], the pKi was 7.41.

Turning to `O=C(c1cccc(F)c1-c1ncccn1)N1CC2CN(c3ncc4cc(F)ccc4n3)CC2C1` (stereo not shown) [Example 243, (3-Fluoro-2-(pyrimidin-2-yl)phenyl)(5-(6-fluoroquinazolin-2-yl)hexahydropyrrolo[3,4-c]pyrrol-2(1H)-yl)methanone], the pKi was 7.80.

On to `COc1ccc(-n2nccn2)c(C(=O)N2CC3CN(c4cnc5cc(F)c(F)cc5n4)CC3C2)c1` (stereo not shown) [Example 245, (5-(6,7-Difluoroquinoxalin-2-yl)hexahydropyrrolo[3,4-c]pyrrol-2(1H)-yl)(5-methoxy-2-(2H-1,2,3-triazol-2-yl)phenyl)methanone], for which the negative logarithm of the Ki (pKi) was 7.24.
